Test system: 616215-338-R-J1-PDC tumor spheroids, viability
Experiment: Anticancer human tumor 616215-338-R-J1-PDC patient-derived colon adenocarcinoma cell line growth inhibition [GQUAD]
Conditions: spheroids with HUVEC and MSC; for IC50: curve of first compound; for viability, T/C: stronger effect = lower value
Outline: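 Viability of tumor cells grown as complex spheroids with endothelial and stromal cells, exposed to drug combinations. Top concentration at or near clinical Cmax (else 10 microM), diluted in half-log increments.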

[1] = second compound 0.0316 µM, first compound 0.0316 µM
[2] = second compound 0.0316 µM, first compound 0.1 µM
[3] = second compound 0.0316 µM, first compound 0.316 µM
[4] = second compound 0.0316 µM, first compound 1 µM
[5] = second compound 0.0316 µM, first compound 3.16 µM
[6] = second compound 0.0316 µM, first compound 10 µM
[7] = second compound 0.1 µM, first compound 0.0316 µM
[8] = second compound 0.1 µM, first compound 0.1 µM
[9] = second compound 0.1 µM, first compound 0.316 µM
[10] = second compound 0.1 µM, first compound 1 µM
[11] = second compound 0.1 µM, first compound 3.16 µM
[12] = second compound 0.1 µM, first compound 10 µM
[13] = second compound 0.316 µM, first compound 0.0316 µM
[14] = second compound 0.316 µM, first compound 0.1 µM
[15] = second compound 0.316 µM, first compound 0.316 µM
[16] = second compound 0.316 µM, first compound 1 µM
[17] = second compound 0.316 µM, first compound 3.16 µM
[18] = second compound 0.316 µM, first compound 10 µM
[19] = second compound 1 µM, first compound 0.0316 µM
[20] = second compound 1 µM, first compound 0.1 µM
[21] = second compound 1 µM, first compound 0.316 µM
[22] = second compound 1 µM, first compound 1 µM
[23] = second compound 1 µM, first compound 3.16 µM
[24] = second compound 1 µM, first compound 10 µM
[25] = second compound 3.16 µM, first compound 0.0316 µM
[26] = second compound 3.16 µM, first compound 0.1 µM
[27] = second compound 3.16 µM, first compound 0.316 µM
[28] = second compound 3.16 µM, first compound 1 µM
[29] = second compound 3.16 µM, first compound 3.16 µM
[30] = second compound 3.16 µM, first compound 10 µM
[31] = second compound 10 µM, first compound 0.0316 µM
[32] = second compound 10 µM, first compound 0.1 µM
[33] = second compound 10 µM, first compound 0.316 µM
[34] = second compound 10 µM, first compound 1 µM
[35] = second compound 10 µM, first compound 3.16 µM
[36] = second compound 10 µM, first compound 10 µM
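Note: spheroids exposed to agents for 7 days before readout.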
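Throughout, for viability, T/C: percent viability relative to DMSO vehicle control wells taken as 100%.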

With `CC(C)n1c(=O)n(C)c2cnc3cc(F)c(-c4ccc(OCCCN5CCCCC5)nc4)cc3c21` + Cc1cnc(CNC(=O)c2c(=O)c3ccc(N4CCCN(C)CC4)nc3n3c2sc2ccccc23)cn1 the IC50 (second compound 0.0316 µM) was 5420 nM, the IC50 (second compound 0.1 µM) was 31.6 nM and the IC50 (second compound 0.316 µM) was under 31.6 nM. For the same molecule, the IC50 (second compound 1 µM) was under 31.6 nM, the IC50 (second compound 3.16 µM) was under 31.6 nM and the IC50 (second compound 10 µM) was under 31.6 nM. It also gave a viability, T/C [1] of 82%, a viability, T/C [2] of 62% and a viability, T/C [3] of 47.6%. The viability, T/C [4] was 69.5%, the viability, T/C [5] was 64% and the viability, T/C [6] was 33.9%. For the same molecule, the viability, T/C [7] was 48.3%, the viability, T/C [8] was 48.5% and the viability, T/C [9] was 52.2%. The viability, T/C [10] was 34%, the viability, T/C [11] was 36.9% and the viability, T/C [12] was 28.8%. It also gave a viability, T/C [13] of 40.6%, a viability, T/C [14] of 43.3% and a viability, T/C [15] of 53.8%. For the same molecule, the viability, T/C [16] was 38.5%, the viability, T/C [17] was 46.8% and the viability, T/C [18] was 13.4%. It also gave a viability, T/C [19] of 28.3%, a viability, T/C [20] of 36.1% and a viability, T/C [21] of 29.9%. It also gave a viability, T/C [22] of 28.2%, a viability, T/C [23] of 34.3% and a viability, T/C [24] of 30.5%. For the same molecule, the viability, T/C [25] was 22.5%, the viability, T/C [26] was 25.6% and the viability, T/C [27] was 32.1%. The viability, T/C [28] was 23.2%, the viability, T/C [29] was 26.9% and the viability, T/C [30] was 8.45%. It also gave a viability, T/C [31] of 31.1%, a viability, T/C [32] of 41.4% and a viability, T/C [33] of 19.9%. It also gave a viability, T/C [34] of 31.9%, a viability, T/C [35] of 24.1% and a viability, T/C [36] of 19.2%.
With `Cn1ncnc1[C@H]1c2n[nH]c(=O)c3cc(F)cc(c23)N[C@@H]1c1ccc(F)cc1` + Cc1cnc(CNC(=O)c2c(=O)c3ccc(N4CCCN(C)CC4)nc3n3c2sc2ccccc23)cn1 the IC50 (second compound 0.0316 µM) was over 316 nM, the IC50 (second compound 0.1 µM) was 237 nM and the IC50 (second compound 0.316 µM) was under 0.999 nM. The IC50 (second compound 1 µM) was under 0.999 nM, the IC50 (second compound 3.16 µM) was under 0.999 nM and the IC50 (second compound 10 µM) was under 0.999 nM. The viability, T/C (second compound 0.0316 µM, first compound 0.000999 µM) was 102%, the viability, T/C (second compound 0.0316 µM, first compound 0.00316 µM) was 99.4% and the viability, T/C (second compound 0.0316 µM, first compound 0.00999 µM) was 104%. It also gave a viability, T/C [1] of 94.8%, a viability, T/C (second compound 0.0316 µM, first compound 0.0999 µM) of 86.5% and a viability, T/C [3] of 77.9%. For the same molecule, the viability, T/C (second compound 0.1 µM, first compound 0.000999 µM) was 68.2%, the viability, T/C (second compound 0.1 µM, first compound 0.00316 µM) was 75.2% and the viability, T/C (second compound 0.1 µM, first compound 0.00999 µM) was 77.9%. For the same molecule, the viability, T/C [7] was 56.5%, the viability, T/C (second compound 0.1 µM, first compound 0.0999 µM) was 58.5% and the viability, T/C [9] was 48.1%. For the same molecule, the viability, T/C (second compound 0.316 µM, first compound 0.000999 µM) was 40.9%, the viability, T/C (second compound 0.316 µM, first compound 0.00316 µM) was 53.4% and the viability, T/C (second compound 0.316 µM, first compound 0.00999 µM) was 44.3%. It also gave a viability, T/C [13] of 44.4%, a viability, T/C (second compound 0.316 µM, first compound 0.0999 µM) of 48.4% and a viability, T/C [15] of 29.5%. For the same molecule, the viability, T/C (second compound 1 µM, first compound 0.000999 µM) was 28.2%, the viability, T/C (second compound 1 µM, first compound 0.00316 µM) was 34.9% and the viability, T/C (second compound 1 µM, first compound 0.00999 µM) was 27.3%. It also gave a viability, T/C [19] of 44.1%, a viability, T/C (second compound 1 µM, first compound 0.0999 µM) of 33.2% and a viability, T/C [21] of 33.2%. For the same molecule, the viability, T/C (second compound 3.16 µM, first compound 0.000999 µM) was 34.9%, the viability, T/C (second compound 3.16 µM, first compound 0.00316 µM) was 27.5% and the viability, T/C (second compound 3.16 µM, first compound 0.00999 µM) was 26.4%. It also gave a viability, T/C [25] of 30.6%, a viability, T/C (second compound 3.16 µM, first compound 0.0999 µM) of 29% and a viability, T/C [27] of 33.3%. For the same molecule, the viability, T/C (second compound 10 µM, first compound 0.000999 µM) was 31.2%, the viability, T/C (second compound 10 µM, first compound 0.00316 µM) was 27.4% and the viability, T/C (second compound 10 µM, first compound 0.00999 µM) was 30.1%. The viability, T/C [31] was 35.5%, the viability, T/C (second compound 10 µM, first compound 0.0999 µM) was 27.4% and the viability, T/C [33] was 30.2%.
`O=C(c1cc(Cc2n[nH]c(=O)c3ccccc23)ccc1F)N1CCN(C(=O)C2CC2)CC1` + Cc1cnc(CNC(=O)c2c(=O)c3ccc(N4CCCN(C)CC4)nc3n3c2sc2ccccc23)cn1 gave an IC50 (second compound 0.0316 µM) of over 10000 nM, an IC50 (second compound 0.1 µM) of over 10000 nM and an IC50 (second compound 0.316 µM) of under 31.6 nM. The IC50 (second compound 1 µM) was under 31.6 nM, the IC50 (second compound 3.16 µM) was under 31.6 nM and the IC50 (second compound 10 µM) was under 31.6 nM. The viability, T/C [1] was 97.3%, the viability, T/C [2] was 103% and the viability, T/C [3] was 107%. It also gave a viability, T/C [4] of 87.9%, a viability, T/C [5] of 84.3% and a viability, T/C [6] of 68.7%. For the same molecule, the viability, T/C [7] was 68.5%, the viability, T/C [8] was 69.3% and the viability, T/C [9] was 74.4%. For the same molecule, the viability, T/C [10] was 64.3%, the viability, T/C [11] was 53.9% and the viability, T/C [12] was 51.5%. The viability, T/C [13] was 43.6%, the viability, T/C [14] was 39.4% and the viability, T/C [15] was 46.4%. It also gave a viability, T/C [16] of 52.2%, a viability, T/C [17] of 36.1% and a viability, T/C [18] of 35.1%. It also gave a viability, T/C [19] of 42.8%, a viability, T/C [20] of 28.7% and a viability, T/C [21] of 30.4%. It also gave a viability, T/C [22] of 54.8%, a viability, T/C [23] of 38.5% and a viability, T/C [24] of 26.7%. The viability, T/C [25] was 28.1%, the viability, T/C [26] was 26.6% and the viability, T/C [27] was 23.2%. It also gave a viability, T/C [28] of 28.7%, a viability, T/C [29] of 41.4% and a viability, T/C [30] of 30.3%. It also gave a viability, T/C [31] of 36.6%, a viability, T/C [32] of 28.7% and a viability, T/C [33] of 25.2%. For the same molecule, the viability, T/C [34] was 22.7%, the viability, T/C [35] was 44.1% and the viability, T/C [36] was 24.3%.
